Results from patent US20160106100A1, “MICROBICIDAL COMPOSITION COMPRISING AN ISOTHIAZOLONE AND AN AMINE OXIDE” (priority 2013, published 2016).

Key:
Assay type in all cases: cell-based
[1] = test system: Aspergillus niger (DSM 12623); test: MIC and synergy index of MIT + N,N-Dimethyldodecan-1-amine oxide in Sabouraud glucose agar; details: for Synergy Index (Qa/QA + Qb/QB): sole biocide
Procedure: The synergism of a combination of 2-Methyl-isothiazolinone (MIT) with N,N-Dimethyldodecan-l-amine oxide was tested. Test organisms used was the mould Aspergillus niger (DSM 12623). For the purpose of the test, mixtures containing different concentrations of MIT and N,N-Dimethyldodecan-1-amine oxide were prepared and tested for their action on Aspergillus niger. The active compound mixtures in the corresponding concentrations were introduced into selective nutrient media (Sabouraud glucose agar for Aspergillus niger and the test organisms were likewise incorporated into the agar. The cell density in the agar was in each case 3.7·10^6 spores per ml for Aspergillus niger. The incubation time is 72 hours at 25° C. This was followed by visual testing for growth of Aspergillus niger. The growth was apparent through the formation of colonies or mycelia on the surface of the agar. In this way the minimum inhibitory concentrations (MICs) of the two active compounds were determined, individually and in combination. The MIC is the concentration at which there is no formation of colonies or mycelia on the surface of the agar ( Aspergillus niger).
The synergism that occurred was presented numerically by calculation of the synergy index (SI). This calculation was made using the common method of F. C. Kull et al., Applied Microbiology, vol. 9 (1961), p. 538. SI is calculated there in accordance with the following formula:
Synergy index SI=Qa/QA+Qb/QB
If the synergy index has a value of more than 1, this means that there is an antagonism. If the synergy index adopts a value of 1, this means that the action of the two biocides is additive. If the synergy index takes on a value of below 1, this means that there is synergism of the two biocides.
Calculation of the synergy index of N,N-Dimethyldodecan-1-arnine oxide+MIT in respect of Aspergillus niger for an incubation time of 72 hours at 25° C.

[2] = test system: Candida albicans (ATCC 10231); test: MIC and synergy index of MIT + N,N-Dimethyldodecan-1-amine oxide in Muller Hinton Broth; details: for MHK: alone, 72 hours at 25° C.; for Synergistic Index / Total: single biocide alone
Procedure: Furthermore, the synergism of a combination of 2-Methyl-isothiazolinone (MIT) with N,N-Dimethyldodecan-1-amine oxide was tested using Candida albicans (ATCC 10231). For the purpose of the test, mixtures containing different concentrations of MIT and N,N-Dimethyldodecan-1-amine oxide were prepared and tested for their action on Candida albicans. The active compound mixtures in the corresponding concentrations were introduced into selective nutrient media (Muller Hinton Broth). The cell density in the broth was in each case 1.0-10^6 spores per ml. The incubation time is 72 hours at 25° C. This was followed by visual testing for growth of Candida albicans. In this way the minimum inhibitory concentrations (MICs) of the two active compounds were determined, individually and in combination. The synergism that occurred was presented numerically by calculation of the synergy index (SI).

Aspergillus niger = test: MIC and synergy index of ternary mixture Benzalkoniumchloride, N,N-Dimethyldodecan-1-amine oxide and MIT; details: used alone
Procedure: In a further Experiment the synergy index of a ternary mixture of Benzalkoniumchloride, N,N-Dimethyldodecan-1-amine oxide and MIT was determined in respect of Aspergillus niger for an incubation time of 72 hours at 25 ° C.
The synergy of an active substance mixture that contains Benzalkoniumchloride in addition to N,N-Dimethyldodecan-1-amine oxide and MIT, against the microorganism Aspergillus niger is shown as in Table 4.

Compound | MIC ([1]; as sole biocide, 72 hours at 25° C.) | Synergy Index (Qa/QA + Qb/QB) [1] | MHK [2] [ppm] | Synergistic Index [2] | Total [2] [ppm] | MIC ([1]; Aspergillus niger, DSM12623, 72 h) [µg/mL] | Synergistic Index (Aspergillus niger) | MHK (Aspergillus niger; 72 hours at 25 ° C.) [ppm]
Cn1sccc1=O [MIT, 2-methylisothiazolin-3-one] | 1000 (MIC) ppm | 1.00 | 125 | 1.00 | 125 | – | – | –
CCCCCCCCCCCC[N+](C)(C)[O-] [N,N-Dimethyldodecan-1-amine oxide] | – | 1.00 | 50 | 1.00 | 50 | 231 | – | –
Benzalkoniumchloride [BAC] | – | – | – | – | – | – | 1.00 | 80
